Measurements from PubChem BioAssay AID192 (DTP/NCI, 2004).
Several values for one entry are separate records, joined by “and”; a condition that tells them apart may be missing. Equal entries are not always repeated. Toxic doses and inconclusive results are not listed.

System: BDF1 mice, B16 melanoma ip, median survival T/C
Assay: NCI In Vivo Anticancer Drug Screen. Data for tumor model B16 Melanoma (intraperitoneal) in B6D2F1 (BDF1) mice
Details: endpoint: median survival time, higher = longer survival
Outline: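 Tumor-bearing mice received test compound or vehicle. Survival or tumor size was then measured in both groups. The treated-group figure was divided by the control-group figure.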

[1] = dose: 100.0 mg/kg/injection, schedule: Q04DX003 (ip), vehicle: Klucel (hydroxypropylcellulose) (HPC)
[2] = dose: 200.0 mg/kg/injection, schedule: Q04DX003 (ip), vehicle: Klucel (hydroxypropylcellulose) (HPC)
[3] = dose: 400.0 mg/kg/injection, schedule: Q04DX003 (ip), vehicle: Klucel (hydroxypropylcellulose) (HPC)
[4] = dose: 50.0 mg/kg/injection, schedule: Q01DX009 (ip), vehicle: saline with Tween-80
[5] = dose: 100.0 mg/kg/injection, schedule: Q01DX009 (ip), vehicle: saline with Tween-80
[6] = dose: 200.0 mg/kg/injection, schedule: Q01DX009 (ip), vehicle: saline with Tween-80
[7] = dose: 400.0 mg/kg/injection, schedule: Q01DX009 (ip), vehicle: saline with Tween-80
[8] = dose: 12.5 mg/kg/injection, schedule: Q01DX009 (ip), vehicle: saline with Tween-80
[9] = dose: 25.0 mg/kg/injection, schedule: Q01DX009 (ip), vehicle: saline with Tween-80
[10] = dose: 100.0 mg/kg/injection, schedule: Q01DX009 (ip), vehicle: Klucel (hydroxypropylcellulose) (HPC)
[11] = dose: 200.0 mg/kg/injection, schedule: Q01DX009 (ip), vehicle: Klucel (hydroxypropylcellulose) (HPC)
[12] = dose: 400.0 mg/kg/injection, schedule: Q01DX009 (ip), vehicle: Klucel (hydroxypropylcellulose) (HPC)

Which results are given for `C[n+]1c2ccccc2c(Nc2ccc(NS(=O)(=O)CCCCN=C(N)N)cc2)c2ccc(N)cc21`?
T/C (dose: 0.75 mg/kg/injection, schedule: Q01DX009 (ip), vehicle: water): 114 % of control; T/C (dose: 3.0 mg/kg/injection, schedule: Q01DX009 (ip), vehicle: Klucel (hydroxypropylcellulose) (HPC)): 170 % of control; T/C (dose: 3.0 mg/kg/injection, schedule: Q01DX009 (ip), vehicle: water): 171 % of control; T/C (dose: 6.0 mg/kg/injection, schedule: Q01DX009 (ip), vehicle: Klucel (hydroxypropylcellulose) (HPC)): 159 % of control; T/C (dose: 6.0 mg/kg/injection, schedule: Q01DX009 (ip), vehicle: water): 168 % of control and 176 % of control; T/C (dose: 12.0 mg/kg/injection, schedule: Q01DX009 (ip), vehicle: water): 184 % of control and 188 % of control; T/C (dose: 12.5 mg/kg/injection, schedule: Q04DX003 (ip), vehicle: water): 151 % of control; T/C (dose: 25.0 mg/kg/injection, schedule: Q04DX003 (ip), vehicle: water): 171 % of control

What does the source list for `Cc1cc(NS(=O)(=O)c2ccccc2)c2c(c1NS(=O)(=O)c1ccccc1)CC=CC2`?
T/C [1]: 97 % of control; T/C [2]: 94 % of control; T/C [3]: 86 % of control

Which results are given for `CC1(C)N=C(N)N=C(N)N1c1ccc(CCC(=O)Nc2ccc(S(=O)(=O)F)cc2)c(Cl)c1`?
T/C (dose: 6.25 mg/kg/injection, schedule: Q01DX009 (ip), vehicle: saline): 104 % of control; T/C (dose: 12.5 mg/kg/injection, schedule: Q01DX009 (ip), vehicle: saline): 108 % of control

For `COC(CCCl)c1ccc(Cl)cc1` (stereo unspecified), which T/C [4] is on record?
Its T/C is 102 % of control.

And the T/C [5]?
The T/C was 97 % of control.

What about the T/C [6] of the same compound?
The T/C was 87 % of control.

`CC(=O)C(C)C(C)=O` was tested. Which T/C [5] did it give?
The T/C was 88 % of control.

What about the T/C [6] of the same compound?
The T/C was 90 % of control.

What about the T/C [7] of the same compound?
Its T/C is 91 % of control.

With `COC(=O)C(Cl)(Cl)N=Nc1c(Cl)cc(Cl)c(C)c1Cl` as the compound, how does the T/C [8] read?
The T/C was 112 % of control.

And the T/C [9]?
Its T/C is 106 % of control.

And the T/C [4]?
Its T/C is 111 % of control.

And the T/C [5]?
Its T/C is 99 % of control.

And the T/C [6]?
The T/C was 97 % of control.

With `Nc1nc(=S)c2[nH]c(N=Nc3ccc(S(=O)(=O)Nc4ncccn4)cc3)nc2[nH]1` as the compound, how does the T/C (dose: 1.56 mg/kg/injection, schedule: Q01DX009 (ip), vehicle: Klucel (hydroxypropylcellulose) (HPC)) read?
The T/C was 95 % of control.

And the T/C (dose: 3.12 mg/kg/injection, schedule: Q01DX009 (ip), vehicle: Klucel (hydroxypropylcellulose) (HPC))?
Its T/C is 102 % of control.

What about the T/C (dose: 6.25 mg/kg/injection, schedule: Q01DX009 (ip), vehicle: Klucel (hydroxypropylcellulose) (HPC)) of the same compound?
Its T/C is 113 % of control.

And the T/C (dose: 12.5 mg/kg/injection, schedule: Q01DX009 (ip), vehicle: Klucel (hydroxypropylcellulose) (HPC))?
The T/C was 102 % of control.

With `CCC1(O)CC2CN(CCc3c([nH]c4ccccc34)C(C(=O)OC)(c3cc4c(cc3OC)N(C)C3C(O)(C(=O)NCCSSCCNC(=O)C5(O)C(O)C6(CC)C=CCN7CCC8(c9cc(C%10(C(=O)OC)CC%11CN(CCc%12c%10[nH]c%10ccccc%12%10)CC(O)(CC)C%11)c(OC)cc9N(C)C58)C76)C(O)C5(CC)C=CCN6CCC43C65)C2)C1` (stereo unspecified) as the compound, how does the T/C (dose: 0.13 mg/kg/injection, schedule: Q04DX003 (ip), vehicle: saline) read?
The T/C was 122 % of control.

And the T/C (dose: 0.64 mg/kg/injection, schedule: Q01DX009 (ip), vehicle: saline)?
The T/C was 184 % of control.

And the T/C (dose: 1.0 mg/kg/injection, schedule: Q04DX003 (ip), vehicle: saline)?
Its T/C is 151 % of control.

And the T/C (dose: 1.08 mg/kg/injection, schedule: Q01DX009 (ip), vehicle: saline)?
The T/C was 189 % of control.

What about the T/C (dose: 648.0 micrograms/kg/injection, schedule: Q04DX003 (ip), vehicle: saline) of the same compound?
The T/C was 158 % of control and 181 % of control.

What about the T/C (dose: 1080.0 micrograms/kg/injection, schedule: Q04DX003 (ip), vehicle: saline) of the same compound?
Its T/C is 183 % of control and 203 % of control.

What about the T/C (dose: 1800.0 micrograms/kg/injection, schedule: Q04DX003 (ip), vehicle: saline) of the same compound?
Its T/C is 184 % of control and 203 % of control.

`Cc1ccc(Cl)cc1NC(=O)c1ccc(Cl)cc1` was tested. Which T/C [10] did it give?
The T/C was 94 % of control.

What about the T/C [11] of the same compound?
The T/C was 101 % of control.

And the T/C [12]?
The T/C was 116 % of control.

With `CCCCC(SC(CC)(C(N)=O)c1ccccc1)C(=O)O` (stereo unspecified) as the compound, how does the T/C [4] read?
The T/C was 100 % of control.

What about the T/C [5] of the same compound?
The T/C was 99 % of control.

What about the T/C [6] of the same compound?
Its T/C is 92 % of control.

And the T/C [7]?
The T/C was 90 % of control.

What does the source list for `CCN(CC)CCNc1ccc(C)c2sc3ccc(O)cc3c(=O)c12`?
T/C [8]: 110 % of control; T/C [9]: 161 % of control; T/C [4]: 182 % of control; T/C [5]: 172 % of control

`O=[N+]([O-])c1ccccc1O` was tested. Which T/C [8] did it give?
The T/C was 97 % of control.

And the T/C (dose: 12.5 mg/kg/injection, schedule: Q04DX003 (ip), vehicle: saline with Tween-80)?
The T/C was 94 % of control.

What about the T/C [9] of the same compound?
The T/C was 92 % of control.

And the T/C (dose: 25.0 mg/kg/injection, schedule: Q04DX003 (ip), vehicle: saline with Tween-80)?
The T/C was 91 % of control.

What about the T/C [4] of the same compound?
The T/C was 100 % of control.

What about the T/C (dose: 50.0 mg/kg/injection, schedule: Q04DX003 (ip), vehicle: saline with Tween-80) of the same compound?
The T/C was 100 % of control.

How did the T/C [10] turn out when `Cc1cc(=O)[nH]c2ccc(-c3ccc4[nH]c(=O)cc(C)c4c3)cc12` was run?
Its T/C is 96 % of control.

What about the T/C [11] of the same compound?
Its T/C is 93 % of control.

Which T/C (dose: 1.5 mg/kg/injection, schedule: Q01DX009 (ip), vehicle: saline) does the source give for `CC1=C2CC(C)(C)/C=C\C(=O)/C(C)=C\C3=C[C@H](C)C[C@]3(O2)C1=O` here?
The T/C was 93 % of control.

And the T/C (dose: 3.0 mg/kg/injection, schedule: Q01DX009 (ip), vehicle: saline)?
Its T/C is 100 % of control.

What about the T/C (dose: 6.0 mg/kg/injection, schedule: Q01DX009 (ip), vehicle: saline) of the same compound?
The T/C was 100 % of control.

What about the T/C (dose: 12.0 mg/kg/injection, schedule: Q01DX009 (ip), vehicle: saline) of the same compound?
Its T/C is 106 % of control.

And the T/C (dose: 16.0 mg/kg/injection, schedule: Q01DX009 (ip), vehicle: saline with Tween-80)?
The T/C was 97 % of control.

And the T/C (dose: 32.0 mg/kg/injection, schedule: Q01DX009 (ip), vehicle: saline with Tween-80)?
Its T/C is 92 % of control.

Which T/C [1] does the source give for `O=C(O)C(CSC(c1ccccc1)c1ccccc1)NC(=O)C(c1ccccc1)c1ccccc1` (stereo unspecified) here?
Its T/C is 102 % of control.

And the T/C [2]?
The T/C was 105 % of control.

What about the T/C [3] of the same compound?
Its T/C is 92 % of control.

What does the source list for `Cc1cc(C(=O)NNC(C)Cc2ccccc2)no1` (stereo unspecified)?
T/C (dose: 4.6 mg/kg/injection, schedule: Q01DX009 (ip), vehicle: saline): 95 % of control; T/C (dose: 9.3 mg/kg/injection, schedule: Q01DX009 (ip), vehicle: saline): 100 % of control; T/C (dose: 18.75 mg/kg/injection, schedule: Q01DX009 (ip), vehicle: saline): 102 % of control; T/C (dose: 37.5 mg/kg/injection, schedule: Q01DX009 (ip), vehicle: saline): 120 % of control

What does the source list for `Cc1ccc2oc(-c3ccccc3)c(O)c(=O)c2c1`?
T/C (dose: 100.0 mg/kg/injection, schedule: Q01DX009 (ip), vehicle: saline): 106 % of control; T/C (dose: 200.0 mg/kg/injection, schedule: Q01DX009 (ip), vehicle: saline): 108 % of control; T/C (dose: 400.0 mg/kg/injection, schedule: Q01DX009 (ip), vehicle: saline): 104 % of control

Which results are given for `COc1ccc(NC(=S)Nc2ccccn2)cc1`?
T/C [10]: 107 % of control; T/C [5]: 100 % of control; T/C [11]: 100 % of control; T/C [6]: 100 % of control; T/C [12]: 92 % of control

What does the source list for `COC(=O)c1ccc[n+](CCc2c[nH]c3ccccc23)c1`?
T/C [8]: 108 % of control; T/C [9]: 99 % of control; T/C [4]: 97 % of control

For `CC(=O)Oc1ccc(OC(C)=O)c2c1C(=O)C=CC2=O`, which T/C (dose: 0.5 mg/kg/injection, schedule: Q01DX009 (ip), vehicle: Klucel (hydroxypropylcellulose) (HPC)) is on record?
Its T/C is 86 % of control.

What about the T/C (dose: 1.0 mg/kg/injection, schedule: Q01DX009 (ip), vehicle: Klucel (hydroxypropylcellulose) (HPC)) of the same compound?
Its T/C is 88 % of control.

What does the source list for `CCOC(=O)c1[nH]c(C#N)c(C(=O)OCC)c1C`?
T/C [9]: 95 % of control; T/C [4]: 95 % of control; T/C [5]: 88 % of control

Which T/C (dose: 6.25 mg/kg/injection, schedule: Q01DX009 (ip), vehicle: other) does the source give for `C=C1C(=O)OC2C1C(OC(=O)/C(C)=C/COC(C)=O)CC1(CO1)C1C(O)C=C(C)C21` (stereo unspecified) here?
The T/C was 103 % of control.

What about the T/C (dose: 12.5 mg/kg/injection, schedule: Q01DX009 (ip), vehicle: other) of the same compound?
Its T/C is 100 % of control.

What about the T/C (dose: 25.0 mg/kg/injection, schedule: Q01DX009 (ip), vehicle: other) of the same compound?
The T/C was 104 % of control.

For `O=S(=O)(O)SCCNCCCCCC1CCCCC1`, which T/C (dose: 0.75 mg/kg/injection, schedule: Q01DX009 (ip), vehicle: saline with Tween-80) is on record?
The T/C was 90 % of control.

What about the T/C (dose: 1.5 mg/kg/injection, schedule: Q01DX009 (ip), vehicle: saline with Tween-80) of the same compound?
Its T/C is 95 % of control.

And the T/C (dose: 3.0 mg/kg/injection, schedule: Q01DX009 (ip), vehicle: saline with Tween-80)?
Its T/C is 93 % of control.

And the T/C (dose: 6.0 mg/kg/injection, schedule: Q01DX009 (ip), vehicle: saline with Tween-80)?
Its T/C is 104 % of control.

What about the T/C (dose: 12.0 mg/kg/injection, schedule: Q01DX009 (ip), vehicle: saline with Tween-80) of the same compound?
The T/C was 100 % of control.
